Assay results: the supplement of paper PMC8882468

How the values were obtained:
Assay in all cases: CTG-3D luminescence at 96 h relative to day-0 seeding control (ratio to day 0); higher = more growth / less cytotoxicity; PDxO 3D drug screen (set 2), 96 h, CTG-3D normalised to day-0 seeding control.
HCI-015 = system: HCI-015 (organoid from a triple-negative breast cancer xenograft)
HCI-025 = system: HCI-025 (organoid from a breast cancer xenograft)
HCI-008 = system: HCI-008 (organoid from a HER2-enriched breast cancer xenograft)
HCI-016 = system: HCI-016 (organoid from a triple-negative breast cancer xenograft)
HCI-010 = system: HCI-010 (organoid from a breast cancer xenograft)

COc1cccc2c1C(=O)c1c(O)c3c(c(O)c1C2=O)C[C@@](O)(C(=O)CO)C[C@@H]3O[C@H]1C[C@H](N)[C@@H](O)[C@H](C)O1 [epirubicin]
CTG-3D luminescence at 96 h
Details | 12.5 pM | 0.00025 µM | 0.005 µM | 0.1 µM | 1 µM | 10 µM | 100 µM | 625 fM
HCI-008, days in culture: 325 | 1.57 | 2.58 | 1.67 | 1.91 | 0.784 | 0.192 | -0.00523 | 1.81
HCI-008, days in culture: 340 | 1.38 | 1.84 | 1.52 | 1 | 0.612 | – | -0.0051 | 1.34
HCI-008, days in culture: 354 | 1.58 | 0.918 | 1.45 | 0.732 | 0.524 | 0.2 | 0.00146 | 1.46
HCI-008, days in culture: 382 | 1.97 | 1.33 | 1.3 | 1.6 | 0.222 | 0.161 | -0.000657 | 1.49
HCI-010, days in culture: 79 | 1.82 | 1.96 | 2.1 | 0.453 | 0.114 | 0.0313 | -0.00605 | 2.12
HCI-010, days in culture: 86 | 1.93 | 2.45 | 2.56 | 0.972 | 0.179 | 0.0423 | -0.00278 | 2.25
HCI-010, days in culture: 102 | 1.1 | 1.22 | 1.01 | 0.19 | 0.064 | 0.0201 | -0.000814 | 0.986
HCI-010, days in culture: 164 | 1.68 | 1.75 | 1.67 | 0.67 | 0.214 | 0.0976 | -0.00123 | 1.45
HCI-015, days in culture: 333 | 2.58 | 1.36 | 1.49 | 0.405 | 0.191 | 0.0651 | 0.000859 | 1.94
HCI-015, days in culture: 355 | 2.99 | 2 | 0.533 | 0.761 | 0.192 | 0.0805 | 0.00144 | 1.85
HCI-015, days in culture: 369 | 2 | 1.58 | 2.14 | 0.514 | 0.143 | 0.117 | 0.000973 | 2.07
HCI-016, days in culture: 305 | 2.91 | 3.05 | 3.17 | 1.79 | 0.0989 | 0.0325 | -0.0142 | 3.33
HCI-016, days in culture: 327 | 0.93 | 0.767 | 0.985 | 1.49 | 0.0556 | 0.0566 | -0.00792 | 1.16
HCI-016, days in culture: 341 | 2.05 | 1.72 | 2.11 | 0.986 | 0.0279 | 0.103 | -0.00358 | 2.49
HCI-016, days in culture: 397 | 2 | 1.81 | 1.7 | 0.704 | 0.0199 | 0.108 | -0.000737 | 3
HCI-025, days in culture: 175 | 1.67 | 1.16 | 0.961 | 0.846 | 0.14 | 0.0198 | -0.00458 | 1.31
HCI-025, days in culture: 189 | 2.65 | 2.38 | 1.58 | 1.14 | 0.108 | 0.00904 | -0.0017 | 2.54
HCI-025, days in culture: 212 | 1.54 | 2.81 | 3.5 | 1.27 | 0.125 | 0.0162 | -0.000834 | 1.07
HCI-025, days in culture: 224 | 1.88 | 2.11 | 1.45 | 0.576 | 0.0783 | 0.0108 | -0.00319 | 1.79
